A word on the Ki: it is the equilibrium dissociation constant of an inhibitor or competing ligand from its target.

The target of test [1] is T1, Adenosine receptor A2a (Rattus norvegicus, UniProt P30543).
Description: Binding ability of adenosine A2a receptor by using [3H]-CGS- as radioligand in rat striatal homogenate
The target of test [2] is T2, Adenosine receptor A1 (Rattus norvegicus, UniProt P25099).
T2 sequence (P25099 whole entry): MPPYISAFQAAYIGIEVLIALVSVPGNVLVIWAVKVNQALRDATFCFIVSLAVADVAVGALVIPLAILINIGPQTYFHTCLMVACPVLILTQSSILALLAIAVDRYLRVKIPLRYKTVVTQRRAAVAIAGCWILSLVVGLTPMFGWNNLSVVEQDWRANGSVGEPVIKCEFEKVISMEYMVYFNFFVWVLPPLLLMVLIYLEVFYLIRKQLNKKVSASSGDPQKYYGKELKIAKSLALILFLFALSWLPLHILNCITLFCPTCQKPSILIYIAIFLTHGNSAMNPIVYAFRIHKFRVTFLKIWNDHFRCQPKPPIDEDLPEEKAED
Briefly: biochemical.
Description: Binding ability of adenosine A1 receptor by using [3H]CHA as radioligand in rat whole brain homogenate

Test [3] deals with T1, Adenosine receptor A2a. Briefly: Displacement of [3H]-CGS- from Adenosine A2a receptor of rat striatal homogenate.

T1 sequence (P30543 whole entry): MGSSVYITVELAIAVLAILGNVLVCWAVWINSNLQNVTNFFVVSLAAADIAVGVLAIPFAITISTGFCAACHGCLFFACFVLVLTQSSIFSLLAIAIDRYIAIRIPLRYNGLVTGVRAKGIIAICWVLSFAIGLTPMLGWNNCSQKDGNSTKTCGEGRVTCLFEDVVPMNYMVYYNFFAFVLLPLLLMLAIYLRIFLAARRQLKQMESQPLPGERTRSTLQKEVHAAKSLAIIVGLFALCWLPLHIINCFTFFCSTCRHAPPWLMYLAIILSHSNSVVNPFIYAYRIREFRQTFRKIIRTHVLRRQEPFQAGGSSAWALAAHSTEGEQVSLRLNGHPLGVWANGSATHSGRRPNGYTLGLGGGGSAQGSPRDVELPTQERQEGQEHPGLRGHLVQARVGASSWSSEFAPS

As to `Nc1nc2nn(CCc3ccccc3)cc2c2nc(-c3ccco3)nn12`, the Ki in test [1] is 1.4 nM; in test [2], 4.7 nM.

Regarding `CCCCn1cc2c(nc(N)n3nc(-c4ccco4)nc23)n1`, the values for the inhibition constant Ki in test [1] and in test [2] were 2.4 nM and 30.4 nM, respectively. The corresponding values for `CCCCn1ncc2c1nc(N)n1nc(-c3ccco3)nc21` are 8.9 nM and 236 nM.

With `Cn1ncc2c1nc(N)n1nc(-c3ccco3)nc21`, the values for the Ki in test [1] and in test [2] were 101 nM and 651 nM, respectively. The corresponding values for `Nc1nc2nn(Cc3ccc(F)cc3)cc2c2nc(-c3ccco3)nn12` are 1.2 nM and 3.3 nM. In turn, `CC(C)CCn1cc2c(nc(N)n3nc(-c4ccco4)nc23)n1` gave a Ki in test [2] of 5.6 nM. In the case of `Nc1nc2nn(Cc3ccc(F)cc3)nc2c2nc(-c3ccco3)nn12`, the Ki was 2.5 nM in test [1] and 18.3 nM in test [2].

Turning to `Nc1nc2c(nnn2Cc2ccccc2)c2nc(-c3ccco3)nn12`, the Ki was determined as 4.6 nM in test [1] and 6.1 nM in test [2]. In the case of `Nc1nc2c(nnn2Cc2ccc(F)cc2)c2nc(-c3ccco3)nn12`, the Ki worked out at 13.7 nM in test [1] and 61.2 nM in test [2]. In the same order, the values of `Nc1nc2c(nnn2Cc2cccc(F)c2)c2nc(-c3ccco3)nn12` are 4.9 nM and 19 nM. Consider `Nc1nc2c(nnn2CCc2ccccc2)c2nc(-c3ccco3)nn12`, for which the inhibitory constant (Ki) stood at 6.9 nM in test [1] and 42.4 nM in test [2]. In the same order, the values of `Nc1nc2c(nnn2Cc2ccccc2F)c2nc(-c3ccco3)nn12` are 10.4 nM and 13.7 nM. The corresponding values for `CC(C)CCn1ncc2c1nc(N)n1nc(-c3ccco3)nc21` are 12 nM and 116 nM.

`Nc1nc2ccc(Cl)cc2c2nc(-c3ccco3)nn12` [CGS-15943]: the affinity in test [3], expressed as Ki, was 1.2 nM.

These data come from ChEMBL document CHEMBL1127769, “Synthesis of new pyrazolo[4,3-e]1,2,4-triazolo[1,5-c] pyrimidine and 1,2,3-triazolo[4,5-e]1,2,4-triazolo[1,5-c] pyrimidine displaying potent and selective activity as A2a adenosine receptor antagonists” (Bioorg Med Chem Lett, 1994).
